In patent publication US20130210034A1, “COMPLEX PHOSPHOPROTEIN ACTIVATION PROFILES” (BECKMAN COULTER, INC., priority 2005, published 2013):
Values joined by “and” are separate entries in the source; they are usually repeats but may differ in a detail not shown here. Equal entries are not always repeated.

Legend:
Test in all cases: Phosphoprotein kinetic profiles in bone marrow samples from healthy donors
Assay type in all cases: cell-based, human
[1] = test system: pS6; conditions: for pS6 Amp (peak amplitude of fold stimulation) / pS6 RI (response interval): CD34^+
Experimental: (§1) Phosphoprotein kinetic profiles were analyzed in bone marrow aspiration samples from nine healthy, adult donors (i.e., normal bone marrow or NBM) and from five AML patients. Samples from healthy donors included 5 males and 4 females, ranging in age from 26 to 49 years. Approximately 10 to 20 mL of bone marrow (BM) samples were collected from the posterior iliac crest of the volunteers using IRB approved protocols. The BM samples were filtered using a 40 μm Nylon cell strainer to remove marrow particles and the white blood cell concentration determined using a blood analyzer. […] The samples were immediately used for subsequent experimentation.
(§2) To assess the signal transduction response after growth factor simulation, 100 to 200 μL of processed samples including about 2×10^6 WBC/100 μL were added to tubes and incubated at 37° C. for 30 minutes. For inhibition experiments, cells were incubated with 100 μM U0126, 1 μg/mL rapamycin, or both for at least 20 minutes prior to cytokine addition and in all cases for 30 min prior to formaldehyde addition. […] After stimulation the cells were immediately fixed by the addition of formaldehyde to a final concentration of 4% v/v and incubated for 10 minutes at room temperature. Following fixation, red blood cells were lysed by the addition of TRITON-X/PBS solution (0.1% v/v final concentration Triton X-100) supplemented with a 1 x phosphatase inhibitor cocktail (PIC; final concentrations: 0.2 mM sodium orthovanadate, 2 mM sodium pyrophosphate decahydrate, 2 mM [3-glycerophosphate, and 10 mM sodium fluoride) and incubation at 37° C. for 20 minutes. The incubated solution was chilled by the addition of ice-cold Wash Buffer (final concentration 1×PBS and either 4% bovine serum albumin (BSA) or 4% heat-inactivated fetal bovine serum (FBS), supplemented with 1×PIC), and the samples were centrifuged at 300 g for 6 minutes at 4° C.). If the lysis was incomplete, samples were retreated with 0.1% Triton X-100 at 37° C. for 10 to 20 minutes. After removal of the supernatant, cells were washed twice in ice-cold Wash Buffer supplemented with 1×PIC and permeabilized by the addition of pre-chilled 80% methanol while simultaneously vortexing the tube and incubated on ice for 10 minutes. Methanol was removed by centrifugation, the pellet was washed with ice-cold 1×PBS, and non-specific binding was blocked by the addition of ice-cold Wash Buffer supplemented with 1×PIC and incubation at 4° C. for a minimum of 30 minutes.
(§3) To stain cells with fluorescent conjugated monoclonal antibodies, the incubated solution was centrifuged to remove the supernatant and the pellet was incubated for 60 minutes at 4° C. with an antibody staining solution including 0.25 μg to 0.50 μg of pS6-Pacific Blue, pERK-ALEXA 488, pSTAT5-ALEXA 647, CD34-PE, CD45-PerCP, and CD117-PC7. Samples were washed three times with ice-cold Wash Buffer supplemented with 1×PIC, resuspended in 0.5 mL ice-cold Wash Buffer supplemented with 1×PIC including 0.5 μg/mL DAPI, and analyzed by flow cytometryusing a BD LSR II Flow Cytometer, equipped with a High Throughput Sampler (HTS).
(§4) First, doublets, aggregates, and debris were excluded by gating on single cell events in the SSC-Area versus SSC-Height histogram. Then, in events passing through this gate, debris near the origin of the FSC-Area versus SSC-Area plot (gray in FIG. 4A) was excluded by drawing a gate around an area encompassing, primarily, lymphocytes, monocytes, and granulocytes (LMG, black in FIG. 4A). Next, in cells passing through the LMG gate, the blast region (circle in FIG. 4B) was identified in the CD45 versus SSC-Area histogram (FIG. 4B). From this blast population, CD34+, CD117+ cells were identified in the CD34 versus CD117 plot (boxed area in FIG. 4C).

[2] = test system: pERK; conditions: for pERK Amp (peak amplitude of fold stimulation) / pERK RI (response interval): CD34^+, CD117^+ cells
Experimental: as §1, §2, §3, §4

[3] = test system: pSTAT5; conditions: for pSTAT5 RI (response interval) / pSTAT5 Amp (peak amplitude of fold stimulation): CD34^+, healthy donor samples
Experimental: as §1, §2, §3, §4

[4] = CD117^+ cells, healthy donor samples
[5] = monocytes vs CD34^+, CD117^+ cells
[6] = monocytes, healthy donor bone marrow
[7] = SCF-stimulated, healthy donor samples
[8] = SCF-stimulated, mean of healthy donors 6 to 9

| Molecule | pS6 Amp (peak amplitude of fold stimulation) [1, 4] | pS6 RI (response interval) [1, 4] | pERK Amp (peak amplitude of fold stimulation) ([2]; healthy donor samples) | pERK RI (response interval) ([2]; healthy donor samples) | pSTAT5 RI (response interval) ([3]; CD117^+ cells) | pSTAT5 Amp (peak amplitude of fold stimulation) ([3]; CD117^+ cells) | also measured |
| --- | --- | --- | --- | --- | --- | --- | --- |
| Granulocyte-Macrophage Colony-Stimulating Factor [GM-CSF] | 1.8 and 1.8 ± 0.3 | Variable | 4.5 and 4.5 ± 0.6 | Variable | >60 min | – | pS6 maximal fold stimulation in monocytes, times the level observed in CD34^+, CD117^+ cells [1, 5]: about 100 times; pS6 maximal fold stimulation [1, 6]: about 500; pERK maximal fold stimulation [2, 6]: about 100; pSTAT5 maximal fold stimulation in monocytes, times the level observed in CD34^+, CD117^+ cells [3, 5]: about 500 times; pSTAT5 maximal fold stimulation [3, 6]: approximately 10,000 |
| Stem Cell Factor [SCF] | 18 ± 5.1 | 28 min and 28 ± 1.2 min | 120 and 120 ± 28 | 8.7 min and 8.7 ± 0.3 min | Variable | 0.8 ± 0.2 | frequency of positively stained cells at its maximum, pS6 [1, 7]: 26%; Fold Stimulation, pS6 [1, 8]: 10; Frequency, pS6 [1, 8]: 26; MFI, pS6 [1, 8]: 1040; Positives/Negatives, pS6 [1, 8]: 0.44; frequency of positively stained cells at its maximum, pERK [2, 7]: 81%; Fold Stimulation, pERK [2, 8]: 53; Frequency, pERK [2, 8]: 81; MFI, pERK [2, 8]: 3700; Positives/Negatives, pERK [2, 8]: 4.9 |
| FMS-Like Tyrosine Kinase 3 (FLT-3) ligand (protein, UniProt P49771 27-235, looked up) Fms-related tyrosine kinase 3 …: TQDCSFQHSPISSDFAVKIRELSDYLLQDYPVTVASNLQDEELCGGLWRLVLAQRWMERLKTVAGSKMQGLLERVNTEIHFVTKCAFQPPPSCLRFVQTNISRLLQETSEQLVALKPWITRQNFSRCLELQCQPDSSTLPPPWSPRPLEATAPTAPQPPLLLLLLLPVGLLLLAAAWCLHWQRTRRRTPRPGEQVPPVPSPQDLLLVEH | 12 and 12 ± 1.4 | 37 min and 37 ± 6.0 min | 51 and 51 ± 11 | 18 min and 18 ± 1.5 min | Variable | 0.8 ± 0.2 | – |
